This note sets out measurements from ChEMBL document CHEMBL1201862, “PubChem BioAssay data set” (2004).

Assay [1] is described as follows: Late stage results for the probe development effort to identify inhibitors of Plasmodium falciparum gametocytes: Luminescence-based cell-based high throughput dose response assay to identify inhibitors of viability of late stage Plasmodium falciparum gametocytes. It is filed as functional.
The next assay has as its system Vero. Nature of the assay: cytotoxicity of synthesized analogs in Vero cells, SAR follow-up, cytotoxicity control for West Nile virus antiviral project, cell-based, set II (AID 2402). It is filed as functional. The note with it: Chlorocebus sabaeus.
Assay [2] concerns the target Diphosphomevalonate decarboxylase (Streptococcus pneumoniae serotype 2 (strain D39 / NCTC 7466), UniProt Q9FD53). Nature of the assay: S. pneumoniae DPM-DC inhibition retest, confirmation, biochemical, cuvette format, coupled NADH fluorescence (AID 1028). It is filed as functional.
Assay [3] concerns the target T1, Fibrinogen beta chain (Homo sapiens, UniProt P02675). Nature of the assay: Fluorescence polarization-based biochemical high throughput dose response assay to identify inhibitors that disrupt the binding of a cyclic peptide (Tn7) to the fibrin proteolytic product D-Dimer and fragment E complex [DD(E )]. Background: Polarisation of emitted light reports the rotation of a fluorescent probe.

Assay [4] addresses T1, Fibrinogen beta chain. Briefly: Fluorescence polarization-based biochemical high throughput dose response assay to identify inhibitors that disrupt the binding of a cyclic peptide (Tn6) to the fibrin proteolytic product D-Dimer and fragment E complex [DD(E )].
A short description of assay [5]: HepG2 cell cytotoxicity, dose response, cytotoxicity control, plate reader, dry powder, set 6 (AID 743311). It is filed as functional, cell-based.
Assay [6] can be described thus: Glucagon-like peptide 1 release potency, NCI-H716 cell line, dose-response, half-maximal inhibitory concentration (AID 1117344). It counts as functional, cell-based.
Assay [7] is described as follows: half-maximal inhibitory concentration for glucagon-like peptide-1 release, STC-1 cell line, dose-response (AID 1117345). It is filed as functional, cell-based.
A short description of assay [8]: cytotoxicity in HEK-293T cells, dose response, cytotoxicity control for TCR NF-kB inhibitor project, luminescence, T-cell screen hits (AID 489026).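 Also: cells exposed to compound about 14 hours before the viability readout.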 It counts as functional, cell-based.
Assay [9] in a line: NIH:OVCAR-3 ovarian cancer cell cytotoxicity, dose response, PAX8 inhibitor project, plate reader, dry powder samples (AID 743044). It is filed as functional, cell-based.
Assay [10] deals with BJ. Nature of the assay: cytotoxicity toward BJ-TERT fibroblasts, dose response, cell-based, RAS-independent, luminescence (AID 1933). It is filed as functional. The following applies: Homo sapiens.
Assay [11] has as its system BJ. Briefly: cells. The following applies: Homo sapiens. It counts as functional, cell-based.
The nature of assay [12]: cytotoxicity dependent on PAX8, dose response, cell-based, plate reader, dry powder (AID 743049). It counts as functional.
Assay [13] can be described thus: IOSE-T80 ovarian epithelial cell cytotoxicity, dose response, cytotoxicity control for PAX8 inhibitor project, plate reader, dry powder samples (AID 743045). It is filed as functional, cell-based.
A short description of assay [14]: A2780 ovarian cancer cell cytotoxicity, dose response, cytotoxicity control, plate reader, dry powder samples (AID 743046). It is filed as functional, cell-based.
Assay [15] in a line: PAX5 activity inhibitors, dose response, selectivity assay for PAX8 inhibitor project, cell-based, plate reader, dry powder samples (AID 743047).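 Also: HEK293 cells carrying a Pax5 driven CD19 promoter luciferase reporter; potency of inhibitors that lower reporter luminescence.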 It counts as functional.
Assay [16] is described as follows: cytotoxicity in COV434 cells, dose response, cytotoxicity control for PAX8 inhibitor project, cell-based, plate reader, dry powder, SA7 (AID 743145). It counts as functional.
The nature of assay [17]: IGROV1 ovarian cancer cell cytotoxicity, dose response, PAX8 inhibitor project, plate reader, dry powder samples (AID 743043). It counts as functional, cell-based. The following applies: IGROV-1.
The next assay has as its target Paired box protein Pax-8 (Homo sapiens, UniProt Q06710). Briefly: inhibitors of PAX8-driven TPO luciferase reporter, dose response, RMG-I cells, cherry-pick (AID 687027).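 Also: luciferase reporter driven by Pax8 target thyroperoxidase promoter measured by SteadyGlo luminescence.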 It is filed as functional, cell-based. A general note: Reporter assays use an easily measured gene product as a stand-in for the process of interest.
Assay [18] concerns BJ. Briefly: cytotoxicity toward BJ-TERT-LT-ST fibroblasts, dose response, cell-based, RAS-independent, luminescence (AID 1935).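 Also: BJ fibroblasts immortalized with TERT plus LT and ST oncogenes.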 The note with it: Homo sapiens. It is filed as functional.
Assay [19] is described as follows: cytotoxicity in OVCAR4 cells, dose response, cytotoxicity control for PAX8 inhibitor project, cell-based, plate reader, dry powder, SA11 (AID 743150). It counts as functional. The following applies: OVCAR-4.
A short description of assay [20]: cytotoxicity in OV-90 ovarian cancer cells, dose response, PAX8 inhibitor project, cell-based, plate reader, dry powder, SA8 (AID 743149). It counts as functional.
Assay [21] in a line: PAX2 cell-based inhibition, dose response, selectivity assay for PAX8 inhibitor project, plate reader, dry powder samples (AID 743048).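 Also: HEK293 cells carrying a WT1 promoter luciferase reporter driven by expressed Pax2; potency is for inhibition of Pax2 driven reporter signal.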 It is filed as functional.
Assay [22] in a line: cytotoxicity toward DRD oncogenic fibroblasts, dose response, cell-based, non-viral oncogenic, luminescence (AID 1934). It counts as functional. The note with it: Homo sapiens.

Activity calls are given as the source filed them.

T1 sequence (P02675 whole entry, the tested form may be a part): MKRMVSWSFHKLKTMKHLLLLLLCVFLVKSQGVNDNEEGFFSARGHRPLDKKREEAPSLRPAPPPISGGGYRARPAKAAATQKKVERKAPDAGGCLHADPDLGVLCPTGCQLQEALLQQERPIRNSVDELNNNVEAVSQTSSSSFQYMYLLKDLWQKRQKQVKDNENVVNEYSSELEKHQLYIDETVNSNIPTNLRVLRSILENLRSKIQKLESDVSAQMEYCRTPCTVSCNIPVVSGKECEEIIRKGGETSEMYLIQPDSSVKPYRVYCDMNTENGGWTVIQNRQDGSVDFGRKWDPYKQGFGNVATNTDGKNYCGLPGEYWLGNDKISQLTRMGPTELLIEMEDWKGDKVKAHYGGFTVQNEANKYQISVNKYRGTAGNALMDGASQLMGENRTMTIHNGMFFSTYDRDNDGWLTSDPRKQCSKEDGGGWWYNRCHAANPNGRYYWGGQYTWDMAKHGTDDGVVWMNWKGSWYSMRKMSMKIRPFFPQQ
Diphosphomevalonate decarboxylase, sequence (Q9FD53 whole entry, the tested form may be a part): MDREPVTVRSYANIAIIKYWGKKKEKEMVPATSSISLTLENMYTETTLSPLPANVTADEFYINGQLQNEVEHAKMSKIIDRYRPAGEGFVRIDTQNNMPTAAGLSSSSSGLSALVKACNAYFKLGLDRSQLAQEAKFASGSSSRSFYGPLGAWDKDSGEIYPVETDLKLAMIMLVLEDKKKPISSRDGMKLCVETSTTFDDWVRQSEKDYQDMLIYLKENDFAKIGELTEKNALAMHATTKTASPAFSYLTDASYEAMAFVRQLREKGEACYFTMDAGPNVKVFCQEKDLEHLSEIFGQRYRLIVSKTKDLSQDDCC
Paired box protein Pax-8, sequence (Q06710 whole entry): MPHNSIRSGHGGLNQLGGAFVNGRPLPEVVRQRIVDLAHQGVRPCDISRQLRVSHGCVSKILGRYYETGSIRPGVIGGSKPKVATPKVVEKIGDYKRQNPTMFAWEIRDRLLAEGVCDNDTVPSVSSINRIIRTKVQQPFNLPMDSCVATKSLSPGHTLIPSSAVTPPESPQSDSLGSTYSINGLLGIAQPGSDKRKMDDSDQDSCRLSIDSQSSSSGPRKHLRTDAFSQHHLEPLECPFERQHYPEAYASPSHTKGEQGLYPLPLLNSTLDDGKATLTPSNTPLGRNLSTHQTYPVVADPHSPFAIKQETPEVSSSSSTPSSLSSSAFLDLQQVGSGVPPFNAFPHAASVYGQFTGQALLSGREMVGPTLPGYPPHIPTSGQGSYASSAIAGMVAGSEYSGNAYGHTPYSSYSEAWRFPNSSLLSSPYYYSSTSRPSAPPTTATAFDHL

As usually defined, the IC50 is the concentration that inhibits the measured activity by half. With `Cc1cnc(NC(=O)c2cn(-c3ccccc3)nc2-c2cccnc2)s1`, the IC50 in assay [1] is > 74.4 µM (inactive).

What is called CC50 is the concentration that lowers cell viability or growth by half. For `OC1c2cc(Br)ccc2N=C2CCCCN21` (centres undefined), the CC50 in the assay with Vero is > 200 µM (active).

As to `O=C(NCc1ccco1)c1ccccc1-n1sc2ccccc2c1=O`, the concentration for half-maximal inhibition (IC50) in assay [2] is 38.7 µM (active).

With `Nc1c(SCCC(=O)O)ccc2c1C(=O)c1ccccc1C2=O`, the IC50 on Fibrinogen beta chain [3] was > 83.3 µM (inactive); on Fibrinogen beta chain [4] it was 11.7 µM (inactive).

The term AC50 denotes the concentration at which the activity in the assay is half-maximal. Consider `O=S(=O)(c1ccc(OCCn2cnc3ccccc32)cc1)N1CCOCC1`, for which, in assay [5], the AC50 was > 52 µM (inactive).

Regarding `CCCCC(CC)CN1CN(CC(CC)CCCC)CC(C)(N)C1` (centres undefined) [HEXETIDINE], the IC50 in assay [6] is 36.4 µM (inactive); in assay [7] it was 26.6 µM (inactive).

A word on the EC50: it is the concentration giving half of the maximal effect. On to `CCOCCCNC(=O)c1ccc2c(c1)N=C(CC)c1cc(Br)ccc1S2`, for which, in assay [8], the IC50 was > 80 µM (inactive). The concentration at half-maximal activity (AC50) in [9] is 0.3 µM (active); in [12], 0.386 µM (active); in [13], 0.403 µM (active); in [14], 1.35 µM (active); in [15], 41.8 µM (active); in assay [16], 1.07 µM (active). The AC50 was 4.78 µM (active) in assay [17]; 1.22 µM (active) on Paired box protein Pax-8; 1.16 µM (active) in assay [19]; 0.497 µM (active) in assay [20]; 15.3 µM (active) in assay [21]. In addition, the EC50 is 0.342 µM (active) with BJ [10], 0.828 µM (inconclusive) with BJ [11], 0.455 µM (active) in the assay with BJ [18] and 0.358 µM (active) in [22].
